Measured values from patent US7989634B2, “Melanocortin receptor agonists” (LG Life Sciences Ltd., priority 2003, dated 2011).
pEC50, pIC50: −log10 of the molar value.

What was measured:
[1] = target: T1, human melanocortin receptor 4 (MC4R) (Homo sapiens, UniProt P32245); experiment: Membrane fraction binding assay (125I-NDP-MSH competition); conditions: binding affinity against MCR4
T1 construct: expressed in transfected cells
Method: The membrane fraction binding assay was used to identify competitive inhibitors of ^125I-NDP- -MSH binding to cloned human MCRs expressed in HEK cells.
Cell lines expressing human melanocortin receptor 4 (MC4R) were grown in Φ150 mm culture dishes in DMEM (GIBCO-BRL) supplemented with 10% FBS, 200 ug/ml Geneticin (GIBCO-BRL), and antibiotics (penicillin and streptomycin) (GIBCO-BRL) in an atmosphere of 6% CO2 at 37° C. When the cells were fully grown, the cells were washed once with 10 ml of Ca^++, Mg^++ free DPBS. The cells were incubated with 8 ml of Ca^++, Mg^++ free DPBS for 15-30 min at 37° C. until the cells were easily detached by triturating with pipette. The cells were harvested into 50 ml of conical tubes, and spun at 1500 rpm for 5 min. The supernatant was discarded, and the cells were resuspended in 8 ml of Ca^++, Mg^++ free DPBS, and spun at 1500 rpm for 5 min. The supernatant was discarded, and pellets were resuspended in 3 ml of membrane preparation buffer (50 mM Tris, pH 7.2˜7.4, 4 ug/ml Leupeptin; 10 uM Phosphoramidon; 40 ug/ml Bacitracin; 5 ug/ml Aprotinin; 10 mM Pefabloc). The pellets were homogenized with dounce homogenizer (Bellco with type “B” glass pestle) using 10-12 strokes. The homogenate was centrifuged (Beckman XL-100K Ultracentrifuge, Rotor 45 Ti, 50 ml centrifuge tube) at 40,000 rpm (100,000×g) for 30 min at 4° C. The pellets were resuspended in 20 ml of membrane preparation buffer, and protein was determined by BCA assay kit (PIERCE). Aliquots were placed in tubes and stored at −80° C.
Membrane fraction was diluted with membrane binding buffer to make final 600 ug/ml, and 50 ul of membrane fraction containing 30 ug of membrane protein was added onto each well of 96-well assay plate. 25 ul of test compounds or 20 uM unlabelled NDP- -MSH (to make the final concentration at 5 uM) diluted with membrane binding buffer was added onto each well of 96-well assay plate. […] The top was sealed, and the radioactivity was quantitated in a Packard Topcount Microplate Scintillation Counter. […]

[2] = target: T1, human melanocortin receptor 4 (MC4R); experiment: Luciferase functional assay; type: cell-based; conditions: agonistic efficacy against MCR4; functional assay not specified (luciferase or cAMP)
Method: Cell lines expressing human melanocortin receptor 4 (MC4R) were dissociated from tissue culture dishes by rinsing with Ca^++, Mg^++ free DPBS, treated with 1× Trypsin/EDTA solution for 1 min at 37° C., and resuspended with DMEM (GIBCO-BRL) supplemented with 10% FBS. The cells were counted and diluted with DMEM supplemented with 10% FBS and 200 ug/ml of Geneticin to 5×10^5 cells/ml. 90 ul of cell suspension was plated onto each well of 96-well black and clear bottom culture plates (Costar). After the incubation for 24 h in the atmosphere of 6% CO2 at 37° C., 10 ul of NDP- -MSH and test compounds diluted in DMSO were added to each well. The final DMSO concentration was 1%. After 4 h of incubation in the atmosphere of 6% CO2 at 37° C., 50 ul of Bright-Glo (Promega) was added to each well. Luciferase activity was measured by using L-Max luminometer (Molecular Device). The amount of luciferase activity induced by treatment with NDP- -MSH was defined as 100% to obtain the relative efficacy of test compounds. The EC0.5 MSH was defined as the concentration of test compounds that results in half maximal activity of NDP- -MSH. The EC50 was defined as the concentration of test compound that results in half maximal activity of its own.

T1 sequence (P32245 whole entry): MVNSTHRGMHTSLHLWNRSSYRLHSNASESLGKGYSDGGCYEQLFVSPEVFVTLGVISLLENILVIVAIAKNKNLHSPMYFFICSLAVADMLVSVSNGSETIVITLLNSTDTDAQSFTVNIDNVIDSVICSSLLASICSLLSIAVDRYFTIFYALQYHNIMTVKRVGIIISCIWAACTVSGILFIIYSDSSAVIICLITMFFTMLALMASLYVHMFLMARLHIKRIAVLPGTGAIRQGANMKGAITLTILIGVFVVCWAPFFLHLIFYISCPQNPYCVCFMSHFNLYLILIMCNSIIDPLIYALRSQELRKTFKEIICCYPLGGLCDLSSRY

pIC50 [1]	pEC50 [2]	SMILES
6.30 to 7.00	6.30 to 8.30	CC(C)C(=O)N(C1CCCCC1)[C@H]1CCN(C(=O)[C@@H](Cc2ccc(Cl)cc2)NC(=O)[C@H]2CCCN2)C1 [Example 2]
6.30 to 7.00	6.30 to 8.30	CC(C)C(=O)N(C1CCCCC1)[C@H]1CCN(NC(=O)[C@@H](Cc2ccc(Cl)cc2)NC[C@H]2CCCN2)C1 [Example 3, (2R)-2-{[(2R)-pyrrolidine-2-yl]methyl}amino-N-{(3S)-3-[cyclohexyl(isobutyryl)amino]pyrrolidine-1-yl}-3-(4-chlorophenyl)propionamide 2TFA]
6.30 to 7.00	6.30 to 8.30	CC(C)C(=O)N(C1CCCCC1)[C@H]1CCN(C(=O)[C@H](N)Cc2ccc(Cl)cc2)C1 [Example 1]
